Test results as given in US20040235873A1, “Antiinflammatoric and antitussive compositions” (priority 2001, published 2004).

Assays:
Assay type in all cases: in vivo, Hartley male guinea pigs
[1] = test system: LTD4-induced airway hypersensitiveness in guinea pigs; assay: LTD4-induced airway hypersensitive reaction; conditions: for ID50 of airway hypersensitiveness inhibition: intraduodenal administration 30 minutes before LTD4 inhalation, guinea pigs; for Airway hypersensitiveness inhibition versus control group: orotic acid 10 to 30 mg/kg, zinc orotate 10, 30 mg/kg to the duodenum
Procedure: This was to confirm the presence or absence of antiasthmatic effect of orotic acid and zinc orotate. Concretely, the effect of orotic acid and zinc orotate against leukotriene D4 (hereinafter abbreviated to LTD4)-induced airway hypersensitive reaction was investigated in the manner described below.
Expression of LTD4-induced airway hypersensitiveness was carried out according to the method of Sato et al [Clinical and Experimental Allergy, 26, 957-963 (1996)], as shown below:
(§1) Hartley male guinea pigs (from Nippon SLC) were raised at a constant temperature (22 to 23° C.) and a constant humidity (50 to 60%) for 2 weeks, and healthy animals of those having a body weight of from 150 to 250 g were used in the test. The guinea pigs were anesthetized with urethane (1.2 g/kg) and subjected to tracheotomy and cannulation. The tracheal cannula was connected to an artificial respiration device for small animals (Model 7025, UGO BASIL by VARASE), and artificial respiration (breathing rate, 60/min; 10 ml/kg) was performed. As an airway contraction index thereof, the pulmonary inflation pressure (hereinafter abbreviated to […], its unit being cmH2O) of the test animal was measured via a pressure transducer (TP-603, by Nippon Kodensha). In addition, a cannula was inserted into the carotid […] of the test animal, and the blood pressure through it was also measured via a pressure transducer (Life KitDX-360, by Nippon Kodensha). After the operation, the guinea pigs were left as such for about 5 minutes, and after the base PIP thereof was stabilized, the test with them was started. 50 μg/kg acetylcholine (hereinafter referred to as ACh, by Sigma) was intravenously administered to each test animal to induce airway contraction therein. After the elevated PIP was lowered to the base line thereof, ACh of the same concentration was again intravenously administered. This operation was repeated until the PIP increase (ΔPIP) was stabilized. After the ΔPIP stabilization was confirmed, ACh was intravenously administered
(§2) (30 μg/kg or 40 μg/kg), and the value ΔPIP in this stage was referred to as a Pre value. 30 minutes thereafter, each test animal was made to inhale 0.1 µg/ml of LTD4 (by Funakoshi) for 30 seconds via an ultrasonic nebulizer (NE-U12, by Omron), and after 15 minutes, ACh was again intravenously administered (30 μg/kgor40μg/kg) to each test animal to induce airway contraction therein. The value ΔPIP in this stage was rendered as a Post value. Relative to those of the LTD4 administration group, the animals of the control group were made to inhale saline in place of LTD4. The Post value and the Pre value were compared with each other in the control group and the LTD4 administration group, and the difference was an index of airway hypersensitiveness expression.
(§3) 30 minutes before the start of the LTD 4 inhalation, a test substance was administered to the duodenum of each test animal. In place of the test substance, 0.5% methyl cellulose (hereinafter abbreviated to MC) was administered to the animals of the control group relative to those of the test substance-administration group.
The data obtained were expressed as the mean value±standard error thereof. A statistical analysis soft SAS was used for significance test. For significance test of two groups, paired t-test was carried out (FIG. 1, FIG. 2); and for comparison test of multiple groups, Bartlet test was followed by 1-way ANOVA and Dunnett's multiple comparison test. […]

[2] = test system: ovalbumin (OA)-sensitized guinea pigs; assay: Cell invasion in bronchovesicular washing fluid (BALF) of ovalbumin-sensitized guinea pigs after antigen induction; conditions: for Number of eosinophils invaded in BALF / Number of the total cells invaded in BALF: 24 hours after induction
Procedure: The present test was carried out according to the method mentioned below, with reference to the method of Lagente et al [Clin. Exp. Allergy, 23, 1002-1010 (1993)] and the method of Dunn et al [Am. Rev. Resp. Dis., 137, 541-547 ([…])].
Hartley male guinea pigs (from Nippon Charles River) were raised at a constant temperature (22 to 23° C.) and a constant humidity (50 to 60%) and healthy animals of those having a body weight of from 350 to 450 g were used in the test. The guinea pigs were put in a plastic box (30×50×30 cm), and made to inhale 2 mg/ml of a solution of ovalbumin (hereinafter sometimes abbreviated to OA, from Sigma Aldrich) for30minutes, twice at an interval of 48 hours for […] sensitization. An ultrasonic nebulizer (NE-U12, by Omron) was used for the inhalation. Antigen induction in the test animals was carried out 13 to 15 days after the final sensitization, in the same plastic box as that for the sensitization. For it, the test animals were made to inhale 1% (w/v) OA solution for 15 minutes to induce reaction. Those of the control group with no OA inhalation were made to inhale saline.
In this stage, a histamine H1-receptor antagonist, pyrilamine (by Sigma Aldrich) was intravenously administered (2 mg/kg) to the test animals 30 minutes before the antigen induction, for evading animal death owing to anaphylactic shock. Orotic acid, zinc orotate and a PDE4 inhibitor (rolipram, obtained through chemical synthesis) were orally administered one hour before the antigen induction. To those of the control group not administered with orotic acid, zinc orotate or rolipram, 0.5% (w/v) MC solution was administered.
24 to 72 hours after the antigen induction, the bronchovesicles of the test animals were washed (BAL). Namely, the sensitized guinea pigs were anesthetized with pentobarbital (intravenous-administration, 100 mg/kg), and 5 ml of saline was injected into the guinea pigs via a tracheal cannula through a disposable syringe (by Terumo). In about 5 seconds, the saline injected into the guinea pigs was recovered. This operation was repeated twice to collect the bronchovesicular washing fluid (BALF). BALF was centrifuged at 2500 rpm (1250 ×g) at 4° C. for 10 minutes. The supernatant was removed by suction, and the deposited cells were suspended in one ml of saline. In the suspension, the number of all leucocytes was counted with an automatic cell counter (Celltec MEK-4300, by Nippon Kodensha). A part of the cells were formed into a smear with Cytospin III (by Shand on Southern Instruments). […] Specifically, eosinophils (Eos), neutrophils (Neu), macrophages (Mac), lymphocytes (Lym) and other cells (Other) were counted, and their ratio was calculated. The number of the respective cells was calculated by multiplying the number of all leucocytes by the ratio of the cells counted in the fraction.
The data obtained were expressed as the mean value±standard error thereof. A statistical analysis soft SAS was used for significance test. For significance test of the two groups, Student's t-test was carried out; and for comparison test of multiple groups, Bartlet test was followed by 1-way ANOVA and Dunnett's multiple comparison test. […]
Orotic acid was orally administered 1 hour before the OA inhalation. The data obtained are expressed as the mean value ±standard error of 9 or 10 cases.
Zinc orotate was orally administered 1 hour before the OA inhalation. The data obtained are expressed as the mean value±standard error of 9 or 10 cases. […]

[3] = test system: ACh-induced airway contraction in guinea pigs; assay: Acetylcholine-induced pulmonary inflation pressure change before and after saline inhalation (preliminary test); conditions: for PIP increase (ΔPIP) induced by intravenous ACh, Post value / PIP increase (ΔPIP) induced by intravenous ACh, Pre value / Difference between Pre value and Post value of ACh-induced PIP increase: 30 mg/kg to the duodenum prior to saline inhalation; for PIP increase (ΔPIP) induced by intravenous ACh, Post value: after saline inhalation; for PIP increase (ΔPIP) induced by intravenous ACh, Post value / PIP increase (ΔPIP) induced by intravenous ACh, Pre value: mean±standard error of three cases; for PIP increase (ΔPIP) induced by intravenous ACh, Pre value: before saline inhalation; for Difference between Pre value and Post value of ACh-induced PIP increase: paired t-test
Procedure: as §1, §2, §3
The data obtained were expressed as the mean value±standard error thereof. A statistical analysis soft SAS was used for significance test. For significance test of two groups, paired t-test was carried out (FIG. 1, FIG. 2); and for comparison test of multiple groups, Bartlet test was followed by 1-way ANOVA and Dunnett's multiple comparison test. In every test, p<0.05 indicates a significant difference.
The PIP increase (Pre value, white column) induced by the intravenous ACh administration (40 µg/kg) was 8.40±0.76 cmH2O; while the PIP increase (Post value, black column) after the inhalation of saline, as used for a solvent for LTD4 was 8.30±1.07cmH2.
Orotic acid and zinc orotate each were suspended in 0.5% MC just before use.
Orotic acid, zinc orotate (30 mg/kg) or 0.5% MC was intraduodenally administered 30 minutes before the inhalation of saline. The data obtained are expressed as the mean value±standard error of three cases. N.S. (not significant) indicates no statistically significant difference.

[4] = 100 mg/kg orally 1 hour before OA antigen induction
[5] = 100 or 300 mg/kg orally 1 hour before OA antigen induction

| Molecule | Statistical significance of airway hypersensitiveness inhibition ([1]; dose of 30 mg/kg to the duodenum, versus MC control, p<0.05) | ID50 of airway hypersensitiveness inhibition [1] [mg/kg] | Airway hypersensitiveness inhibition versus control group [1] | Number of eosinophils invaded in BALF [2, 4] | Number of the total cells invaded in BALF [2, 4] | PIP increase (ΔPIP) induced by intravenous ACh, Post value [3] [cmH2O] | PIP increase (ΔPIP) induced by intravenous ACh, Pre value [3] [cmH2O] | Difference between Pre value and Post value of ACh-induced PIP increase [3] | Influence on ACh-induced airway contraction ([3]; FIG. 1, 30 mg/kg intraduodenal) | Effect against cell invasion, 24 hours compared with 48 hours after antigen induction ([2]; orally one hour before antigen induction, not illustrated) | Number of eosinophils invaded in BALF [2, 5] | Number of the total cells invaded in BALF [2, 5] |
| --- | --- | --- | --- | --- | --- | --- | --- | --- | --- | --- | --- | --- |
| O=C(O)c1cc(=O)[nH]c(=O)[nH]1 [orotic acid, uracil-4-carboxylic acid] | showed a statistical significance | 20.1 | showed airway hypersensitiveness inhibition that depends on the increase in the dose | decreased | decreased | 7.33±1.20 | 7.50±1.04 | no significant difference | did not have any influence on airway contraction |  |  |  |
| COc1ccc(C2CNC(=O)C2)cc1OC1CCCC1 (centres unmarked) [rolipram, reference compound] |  |  |  |  |  |  |  |  |  | any significant difference in the cell invasion was not found between 24 hours and 48 hours |  |  |
| zinc orotate |  | 16.2 | showed airway hypersensitiveness inhibition that depends on the increase in the dose |  |  | 8.00±1.44 | 7.67±1.20 | no significant difference |  |  | decreased | decreased |
